# Measurements as given in paper PMC6301270 (MedChemComm, 2018).
# System: T.b. brucei (strain 427) bloodstream form parasites
# Test: T.b. brucei single concentration screen (10 μM)
# Conditions: Trypanosoma brucei, read-out: T.b.brucei % viability (10 µM)
row,Compound,viability at 10 µM [%]
1,"N#Cc1ccc(-c2ccc(OCC(N)=O)cc2)cc1 [MMV053220, NC(=O)COc1ccc(cc1)c2ccc(cc2)C#N]",68
2,"CC(=O)N1CCc2cc3nc(C)cc(C)c3cc21 [MMV054312, CC(=O)N1CCc2cc3nc(C)cc(C)c3cc12]",91
3,"Cc1cc(C)nc(-n2nc(C)cc2Nc2ccccc2)n1 [MMV062221, Cc1cc(C)nc(n1)n2nc(C)cc2Nc3ccccc3]",103
4,"Cc1nn(Cc2ccccc2)c(Cl)c1C(=O)NC1CCCCCC1 [MMV063404, Cc1nn(Cc2ccccc2)c(Cl)c1C(=O)NC3CCCCCC3]",96
5,"FC(F)(F)c1nnc2ccc(Cl)nn12 [MMV069458, FC(F)(F)c1nnc2ccc(Cl)nn12]",100
6,"O=C1N(Cc2cc3ccccc3s2)CC2CN(Cc3ccccc3)CCN12 (stereo not drawn) [MMV084603, O=C1N(Cc2cc3ccccc3s2)CC4CN(Cc5ccccc5)CCN14]",99
7,"O=C(Nc1cnc2ccccc2c1)c1cccc(-n2cnnn2)c1 [MMV084864, O=C(Nc1cnc2ccccc2c1)c3cccc(c3)n4cnnn4]",80
8,"COc1cncc(-c2cncc(N3CCN(c4ccncc4)CC3)n2)c1 [MMV085071, COc1cncc(c1)c2cncc(n2)N3CCN(CC3)c4ccncc4]",79
9,"O=C(C(Cc1c[nH]c2ccccc12)NS(=O)(=O)c1ccc(Cl)cc1)N1CCCCC1 (stereo not drawn) [MMV085210, Clc1ccc(cc1)S(=O)(=O)NC(Cc2c[nH]c3ccccc23)C(=O)N4CCCCC4]",108
10,"CCCNC(=O)N1CCC2(CC1)CC(=O)c1cc(C)ccc1O2 [MMV085230, CCCNC(=O)N1CCC2(CC1)CC(=O)c3cc(C)ccc3O2]",103
11,"N#Cc1ccc(-c2cnc(N)c(-c3ccc(C(N)=O)cc3)n2)cc1 [MMV085499, NC(=O)c1ccc(cc1)c2nc(cnc2N)c3ccc(cc3)C#N]",31
12,"O=C(Nc1nnc(-c2ccc(Cl)cc2)o1)c1cccc(C(F)(F)F)c1 [MMV102872, FC(F)(F)c1cccc(c1)C(=O)Nc2oc(nn2)c3ccc(Cl)cc3]",51
13,"CCC(C)NC(=O)c1ccc(NC(=O)C2(c3ccccc3)CCCC2)cc1 (stereo not drawn) [MMV146306, CCC(C)NC(=O)c1ccc(NC(=O)C2(CCCC2)c3ccccc3)cc1]",69
14,"Cc1cc(Cl)ccc1NC(=O)CCc1ccc(S(=O)(=O)NCC(C)C)cc1 [MMV161996, CC(C)CNS(=O)(=O)c1ccc(CCC(=O)Nc2ccc(Cl)cc2C)cc1]",97
15,"COc1ccc(C2(C(=O)Nc3ccc(Br)cc3)CCCC2)cc1 [MMV200748, COc1ccc(cc1)C2(CCCC2)C(=O)Nc3ccc(Br)cc3]",100
16,"COc1ccc(OC(C)C(=O)Nc2ccc(Cl)cc2C)cc1 (stereo not drawn) [MMV202458, COc1ccc(OC(C)C(=O)Nc2ccc(Cl)cc2C)cc1]",94
17,"COc1cccc(NC(=O)c2c(NC(=O)c3cccnc3)sc3c2CCC3)c1 [MMV228911, COc1cccc(NC(=O)c2c3CCCc3sc2NC(=O)c4cccnc4)c1]",97
18,"COc1cccc(-c2cc3c(Nc4cccnc4)nccc3[nH]2)c1 [MMV392832, COc1cccc(c1)c2cc3c(Nc4cccnc4)nccc3[nH]2]",101
19,"CN1CCN(c2nccc3[nH]c(-c4cccc(F)c4)cc23)CC1 [MMV393144, CN1CCN(CC1)c2nccc3[nH]c(cc23)c4cccc(F)c4]",59

row,Compound,viability at 10 µM [%]
1,"Cc1cc(O)nc(-n2nc(C)cc2C)n1 [MMV393995, Cc1cc(O)nc(n1)n2nc(C)cc2C]",71
2,"CCc1nc2ccc(C(=O)NCc3ccc4c(c3)OCO4)cn2c1N(C)Cc1cccs1 [MMV407539, CCc1nc2ccc(cn2c1N(C)Cc3cccs3)C(=O)NCc4ccc5OCOc5c4]",82
3,"CCOc1ccccc1NC(C)C(=O)Nc1cc(C(F)(F)F)ccc1N1CCOCC1 (stereo not drawn) [MMV407834, CCOc1ccccc1NC(C)C(=O)Nc2cc(ccc2N3CCOCC3)C(F)(F)F]",104
4,"CS(=O)(=O)Cc1nc2ccccc2oc1=O [MMV553002, CS(=O)(=O)CC1=Nc2ccccc2OC1=O]",114
5,"c1ccc(-c2cc(N3CCCCC3)c3ccccc3n2)nc1 [MMV560185, C1CCN(CC1)c2cc(nc3ccccc23)c4ccccn4]",112
6,"CCC(Sc1nc2ccccc2o1)C(=O)Nc1nnc(C)s1 (stereo not drawn) [MMV611037, CCC(Sc1oc2ccccc2n1)C(=O)Nc3nnc(C)s3]",113
7,"O=C(NCCN1CCCC1)c1cc(NCCN2CCOCC2)nc2ccc(Cl)cc12 [MMV634140, Clc1ccc2nc(cc(c2c1)C(=O)NCCN1CCCC1)NCCN1CCOCC1]",89
8,"Cc1nc(-c2ccccn2)nc(N(C)CCc2ccccc2)c1Cl [MMV658988, CN(CCc1ccccc1)c2nc(nc(C)c2Cl)c3ccccn3]",95
9,"Cc1nc(-c2ccccn2)nc(NCCc2ccc(S(C)(=O)=O)cc2)c1Cl [MMV658993, Cc1nc(nc(NCCc2ccc(cc2)S(=O)(=O)C)c1Cl)c3ccccn3]",102
10,"Cc1nc(-c2ccccn2)nc(N2CCC(Cc3ccccc3)C2)c1Cl (stereo not drawn) [MMV659004, Cc1nc(nc(N2CCC(Cc3ccccc3)C2)c1Cl)c4ccccn4]",109
11,"FC(F)(F)c1cc(NCCc2ccccc2)nc(-c2ccccn2)n1 [MMV659010, FC(F)(F)c1cc(NCCc2ccccc2)nc(n1)c3ccccn3]",82
12,"Brc1cncc(-c2cc(NCCCn3ccnc3)nc(-c3ccccc3)n2)c1 [MMV661713, Brc1cncc(c1)c2cc(NCCCn3ccnc3)nc(n2)c4ccccc4]",98
13,"Clc1cccc(C(c2ccc(CN3CCNCC3)cc2)n2ccnc2)c1 (stereo not drawn) [MMV663250, Clc1cccc(c1)C(c2ccc(CN3CCNCC3)cc2)n4ccnc4]",75
14,"O=C(NCCN1CCCC1)c1cc(NCCCCN2CCC(F)(F)CC2)nc2ccc(Cl)cc12 [MMV667494, FC1(F)CCN(CCCCNc2cc(c3cc(ccc3n2)Cl)C(=O)NCCN2CCCC2)CC1]",56
15,"Nc1ncc(-c2ccc(C(F)(F)F)nc2)cc1-c1ccc(C(F)(F)F)nc1 [MMV668727, Nc1ncc(cc1c2ccc(nc2)C(F)(F)F)c3ccc(nc3)C(F)(F)F]",75
16,"Cc1[nH]c2cc(F)cc(F)c2c(=O)c1-c1ccc(Oc2ccc(OC(F)(F)F)cc2)cc1 [MMV671636, CC1=C(C(=O)c2c(F)cc(F)cc2N1)c3ccc(Oc4ccc(OC(F)(F)F)cc4)cc3]",101
17,"CC(C)(C)c1ccc(N[C@@H]2CCCC[C@H]2NC(=O)c2ccco2)cc1 [MMV675969, CC(C)(C)c1ccc(N[C@@H]2CCCC[C@H]2NC(=O)c3occc3)cc1]",114
18,"COc1ccc(-c2nn(C(C)C)c3ncnc(N)c23)cc1OC [MMV675993, COc1ccc(cc1OC)c2nn(C(C)C)c3ncnc(N)c23]",38
19,"Clc1ccc(-n2cc(COc3ccnc4ccccc34)nn2)cc1 [MMV675994, Clc1ccc(cc1)n2cc(COc3ccnc4ccccc34)nn2]",91

row,Compound,viability at 10 µM [%]
1,"COc1ccc(N(CCc2cccc(C)n2)C(C)=O)cc1 [MMV675995, COc1ccc(cc1)N(CCc2cccc(C)n2)C(=O)C]",108
2,"COc1ccc(N(CCc2cccc(C)n2)C(=O)C2CCCCC2)cc1 [MMV675996, COc1ccc(cc1)N(CCc2cccc(C)n2)C(=O)C3CCCCC3]",107
3,"N#CCN(CCCCN1CCN(c2ccc(F)cc2)CC1)C(=O)OCc1ccccc1 [MMV675997, Fc1ccc(cc1)N2CCN(CCCCN(CC#N)C(=O)OCc3ccccc3)CC2]",97
4,"O=C(Nc1c(O)cccc1-c1nc2c(C(=O)O)cccc2o1)c1cc(-c2ccccc2)on1 [MMV676008, OC(=O)c1cccc2oc(nc12)c3cccc(O)c3NC(=O)c4cc(on4)c5ccccc5]",110
5,"Clc1ccc(Cl)c(CO[C@H]2CCCC[C@@H]2n2ccnc2)c1 [MMV676048, Clc1ccc(Cl)c(CO[C@H]2CCCC[C@@H]2n3ccnc3)c1]",104
6,"CS(=O)(=O)N1CCC(Cn2nc(Cc3cccc4ccccc34)c3c(N)ncnc32)CC1 [MMV676050, CS(=O)(=O)N1CCC(Cn2nc(Cc3cccc4ccccc34)c5c(N)ncnc25)CC1]",117
7,"COc1cc(NC(=O)Cc2nn(C)c(=O)c3ccccc23)ccc1Cl [MMV676053, COc1cc(NC(=O)CC2=NN(C)C(=O)c3ccccc23)ccc1Cl]",100
8,"CC(C)(C)OC(=O)N1CCN(c2cc(-c3ccc(Oc4ccccc4)cc3)n[nH]2)CC1 [MMV676057, CC(C)(C)OC(=O)N1CCN(CC1)c2cc(n[nH]2)c3ccc(Oc4ccccc4)cc3]",21
9,"CCCCc1ccc(NC(=O)Nc2ccc(O[C@H]3CCCC[C@@H]3N(C)c3ccccc3)c(F)c2)cc1 [MMV676063, CCCCc1ccc(NC(=O)Nc2ccc(O[C@H]3CCCC[C@@H]3N(C)c4ccccc4)c(F)c2)cc1]",91
10,"CC(=O)N(CCN(C(=O)c1ccc(F)cc1)c1ccccc1)c1ccccc1 [MMV676064, CC(=O)N(CCN(C(=O)c1ccc(F)cc1)c2ccccc2)c3ccccc3]",100
11,"Clc1cccc(CO[C@H]2CCc3ccccc3[C@@H]2n2ccnn2)c1 [MMV676159, Clc1cccc(CO[C@H]2CCc3ccccc3[C@@H]2n4ccnn4)c1]",96
12,"c1ccc(Oc2ccc(-c3cc(CN4CCOCC4)[nH]n3)cc2)cc1 [MMV676161, C(N1CCOCC1)c2cc(n[nH]2)c3ccc(Oc4ccccc4)cc3]",43
13,"O=C(Nc1ccccc1-c1nc2c(C(=O)O)cccc2o1)c1ccccc1 [MMV676162, OC(=O)c1cccc2oc(nc12)c3ccccc3NC(=O)c4ccccc4]",101
14,"Nc1ncnc2c1c(Cc1cccc3ccccc13)nn2CC1CCNCC1 [MMV676182, Nc1ncnc2c1c(Cc3cccc4ccccc34)nn2CC5CCNCC5]",98
15,"COC(=O)c1cccc2oc(-c3cccc(OC)c3NC(=O)c3cc(-c4ccccc4)on3)nc12 [MMV676186, COC(=O)c1cccc2oc(nc12)c3cccc(OC)c3NC(=O)c4cc(on4)c5ccccc5]",90
16,"CC(C)C(Oc1cccc2ccccc12)C(=O)O (stereo not drawn) [MMV676191, CC(C)C(Oc1cccc2ccccc12)C(=O)O]",103
17,"O=C(c1ccc(F)cc1)N(CCNc1ccccc1)c1ccccc1 [MMV676204, Fc1ccc(cc1)C(=O)N(CCNc2ccccc2)c3ccccc3]",97
18,"CN1CCN(c2nccc3nc(-c4ccc(F)c(F)c4)[nH]c23)CC1 [MMV676260, CN1CCN(CC1)c2nccc3nc([nH]c23)c4ccc(F)c(F)c4]",49
19,"C[C@H](C(N)=O)N1CCCC[C@H]1c1ccc(OCc2cccc(F)c2)cc1 [MMV676269, C[C@@H](N1CCCC[C@H]1c2ccc(OCc3cccc(F)c3)cc2)C(=O)N]",92
